ChEMBL document CHEMBL5380831, “Azolylpyrimidinediols as Novel Structural Scaffolds of DNA-Groove Binders against Intractable Acinetobacter baumannii” (J Med Chem, 2023)
Values after ≈ are worked out from the molar mass of the structure shown. Active and inactive are the calls of the source. No cut-off for these calls is given here.

How the values were obtained:
[1] = AUC (0 to infinity) in Kunming mouse at 10 mg/kg, iv measured upto 24 hrs by LC-MS analysis; assay type: ADME, organism-based; parameters: dose 10 mg/kg, time < 24 hrs, route iv; conditions: in vivo
Escherichia coli [2] = experiment: Antibacterial activity against Escherichia coli assessed as bacterial growth inhibition incubated for 24 hrs by broth microdilution method; assay type: functional
Calf thymus DNA [3] = experiment: Induction of calf thymus DNA cleavage at 0.05 mmol/L incubated for 6 hrs in presence of Cu2+ by agarose gel electrophoresis method; assay type: nucleic-acid assay; conditions: Bos taurus
Calf thymus DNA [4] = experiment: Induction of calf thymus DNA cleavage at 0.05 mmol/L incubated for 6 hrs in presence of Cu(NO3)2 by agarose gel electrophoresis method; assay type: nucleic-acid assay; conditions: Bos taurus
Calf thymus DNA [5] = experiment: Binding affinity to calf thymus DNA incubated for 5 mins by acridine orange displacement assay; assay type: nucleic-acid assay; conditions: Bos taurus
[6] = Clearance in Kunming mouse at 10 mg/kg, iv measured upto 24 hrs by LC-MS analysis; assay type: ADME, organism-based; conditions: in vivo
[7] = Tmax in Kunming mouse at 10 mg/kg, po measured upto 24 hrs by LC-MS analysis; assay type: ADME, organism-based; conditions: in vivo
[8] = AUC (0 to t) in Kunming mouse at 10 mg/kg, iv measured upto 24 hrs by LC-MS analysis; assay type: ADME, organism-based; parameters: time < 24 hrs, dose 10 mg/kg, route iv; conditions: in vivo
[9] = Cmax in Kunming mouse at 10 mg/kg, po measured upto 24 hrs by LC-MS analysis; assay type: ADME, organism-based; parameters: time < 24 hrs, dose 10 mg/kg, route po; conditions: in vivo
Staphylococcus aureus [10] = experiment: Antibacterial activity against Staphylococcus aureus ATCC 25923 assessed as bacterial growth inhibition incubated for 24 hrs by broth microdilution method; assay type: functional
[11] = AUMC (0 to infinity) in Kunming mouse at 10 mg/kg, iv measured upto 24 hrs by LC-MS analysis; assay type: ADME, organism-based; conditions: in vivo
[12] = AUC (0 to infinity) in Kunming mouse at 10 mg/kg, po measured upto 24 hrs by LC-MS analysis; assay type: ADME, organism-based; parameters: dose 10 mg/kg, time < 24 hrs, route po; conditions: in vivo
[13] = AUMC (0 to t) in Kunming mouse at 10 mg/kg, iv measured upto 24 hrs by LC-MS analysis; assay type: ADME, organism-based; conditions: in vivo
Cell membrane [14] = experiment: Induction of outer membrane damage in Acinetobacter baumannii at 1 to 8 times MIC incubated for 30 mins by fluorescence based assay
[15] = Clearance in Kunming mouse at 10 mg/kg, po measured upto 24 hrs by LC-MS analysis; assay type: ADME, organism-based; conditions: in vivo
[16] = Hemolytic activity in human RBC assessed as cell viability upto 256 ug/ml measured for 1 to 8 hrs by absorbance based assay relative to control; assay type: toxicity, Erythrocyte; conditions: red blood cells (erythrocytes), time 1-8 hrs, dose < 256 µg/ml, read-out: Activity
[17] = Half life in Kunming mouse at 10 mg/kg, iv measured upto 24 hrs by LC-MS analysis; assay type: ADME, organism-based; conditions: in vivo
Staphylococcus aureus [18] = experiment: Antibacterial activity against Staphylococcus aureus ATCC 29213 assessed as bacterial growth inhibition incubated for 24 hrs by broth microdilution method; assay type: functional
[19] = Cytotoxicity against human L02 cells assessed as cell viability upto 0.128 mmol/L measured after 24 hrs by MTT assay relative to control; assay type: toxicity, cell-based; conditions: up to 0.128 mM, read-out: Activity
Enterococcus faecalis = experiment: Antibacterial activity against Enterococcus faecalis assessed as bacterial growth inhibition incubated for 24 hrs by broth microdilution method; assay type: functional
[20] = Cmax in Kunming mouse at 10 mg/kg, iv measured upto 24 hrs by LC-MS analysis; assay type: ADME, organism-based; parameters: dose 10 mg/kg, time < 24 hrs, route iv; conditions: in vivo
Acinetobacter baumannii [21] = experiment: Antibacterial activity against Acinetobacter baumannii assessed as decrease in LDH activity incubated for 6 hrs by LDH assay; assay type: functional, organism-based
Cell membrane [22] = experiment: Induction of inner membrane damage in Acinetobacter baumannii at 1 to 8 times MIC incubated for 30 mins by fluorescence based assay
[23] = AUMC (0 to t) in Kunming mouse at 10 mg/kg, po measured upto 24 hrs by LC-MS analysis; assay type: ADME, organism-based; conditions: in vivo
Calf thymus DNA [24] = experiment: Induction of calf thymus DNA cleavage at 0.05 mmol/L incubated for 6 hrs in presence of Zn2+ by agarose gel electrophoresis method; assay type: nucleic-acid assay; conditions: Bos taurus
Acinetobacter baumannii [25] = experiment: Antibacterial activity against Acinetobacter baumannii infected in mouse assessed as log reduction in viable bacterial count at 10 mg/kg measured for 12 hrs; assay type: functional
Calf thymus DNA [26] = experiment: Binding affinity to calf thymus DNA assessed as compound-DNA complex formation by absorbance based assay; assay type: nucleic-acid assay; conditions: Bos taurus
Erythrocyte = experiment: Hemolytic activity against human RBC assessed as change in cell morphology at 512 times MIC measured after 8 hrs by microscopic analysis; assay type: toxicity, cell-based
Escherichia coli [27] = experiment: Antibacterial activity against Escherichia coli ATCC 25922 assessed as bacterial growth inhibition incubated for 24 hrs by broth microdilution method; assay type: functional
Acinetobacter baumannii [28] = experiment: Antibiofilm activity against Acinetobacter baumannii assessed as increase in biofilm eradication incubated for 24 hrs by crystal violet staining based analysis; assay type: functional, organism-based
[29] = MRT (0 to t) in Kunming mouse at 10 mg/kg, iv measured upto 24 hrs by LC-MS analysis; assay type: ADME, organism-based; conditions: in vivo
Acinetobacter baumannii [30] = experiment: Antibacterial activity against Acinetobacter baumannii assessed as reduction in metabolic activity incubated for 6 hrs by alamar blue staining based assay; assay type: functional, organism-based
Calf thymus DNA [31] = experiment: Binding affinity to calf thymus DNA incubated overnight in presence of sodium chloride by sodium ion-quenching assay; assay type: nucleic-acid assay; conditions: Bos taurus
[32] = Hemolytic activity in human RBC at effective concentration measured after 1 hr by absorbance based assay relative to control; assay type: toxicity, cell-based, Erythrocyte; conditions: red blood cells (erythrocytes), read-out: Activity
[33] = Half life in Kunming mouse at 10 mg/kg, po measured upto 24 hrs by LC-MS analysis; assay type: ADME, organism-based; conditions: in vivo
[34] = MRT (0 to infinity) in Kunming mouse at 10 mg/kg, po measured upto 24 hrs by LC-MS analysis; assay type: ADME, organism-based; conditions: in vivo
[35] = Volume of distribution at steady state in Kunming mouse at 10 mg/kg, iv measured upto 24 hrs by LC-MS analysis; assay type: ADME, organism-based; conditions: in vivo, read-out: Vdss
Staphylococcus aureus [36] = experiment: Antibacterial activity against methicillin-resistant Staphylococcus aureus assessed as bacterial growth inhibition incubated for 24 hrs by broth microdilution method; assay type: functional
[37] = MRT (0 to t) in Kunming mouse at 10 mg/kg, po measured upto 24 hrs by LC-MS analysis; assay type: ADME, organism-based; conditions: in vivo
[38] = Oral bioavailability in Kunming mouse at 10 mg/kg measured upto 24 hrs by LC-MS analysis; assay type: ADME, organism-based; conditions: in vivo
[39] = C0 in Kunming mouse at 10 mg/kg, iv measured upto 24 hrs by LC-MS analysis; assay type: ADME, organism-based; conditions: in vivo
Staphylococcus aureus [40] = experiment: Antibacterial activity against Staphylococcus aureus assessed as bacterial growth inhibition incubated for 24 hrs by broth microdilution method; assay type: functional
Calf thymus DNA [41] = experiment: Binding affinity to calf thymus DNA incubated for 5 mins by DAPI displacement assay; assay type: nucleic-acid assay; conditions: Bos taurus
Klebsiella pneumoniae = experiment: Antibacterial activity against Klebsiella pneumoniae assessed as bacterial growth inhibition incubated for 24 hrs by broth microdilution method; assay type: functional
[42] = AUC (0 to t) in Kunming mouse at 10 mg/kg, po measured upto 24 hrs by LC-MS analysis; assay type: ADME, organism-based; parameters: time < 24 hrs, dose 10 mg/kg, route po; conditions: in vivo
[43] = Hemolytic activity in human RBC at 512 times MIC measured after 8 hrs by absorbance based assay relative to control; assay type: toxicity, cell-based, Erythrocyte; conditions: red blood cells (erythrocytes), read-out: Activity
[44] = Tmax in Kunming mouse at 10 mg/kg, iv measured upto 24 hrs by LC-MS analysis; assay type: ADME, organism-based; conditions: in vivo
[45] = Volume of distribution in Kunming mouse at 10 mg/kg, po measured upto 24 hrs by LC-MS analysis; assay type: ADME, organism-based; conditions: in vivo

OCCN(CCO)c1nccc(-n2cncn2)n1
AUC [1]: 2281 ng·h/mL | MIC (Escherichia coli [2]): 1020 µM (≈ 256 µg/mL) | Activity (Calf thymus DNA [3]): inactive | Activity (Calf thymus DNA [4]): inactive | Activity (Calf thymus DNA [5]): inactive | CL [6]: 8.43 mL/min/kg | Tmax [7]: 0.58 h | AUC(0-t) at 24 h [8]: 2080 ng·h/mL | Cmax [9]: 2130 ng/mL | MIC (Staphylococcus aureus [10]): 128 µM (≈ 32 µg/mL) | AUMC [11]: 8598 hr.hr.ng/ml | AUC [12]: 8073 ng·h/mL | AUMCt [13]: 5446 hr.hr.ng/ml | Activity (Cell membrane [14]): inactive | CL/F [15]: 20.7 mL/min/kg | viability [16]: > 99% | half-life [17]: 2.79 h | MIC (Staphylococcus aureus [18]): 1020 µM (≈ 256 µg/mL) | viability at 24 h [19]: 85% | MIC (Enterococcus faecalis): 8 µM (≈ 2 µg/mL) | Cmax [20]: 1990 ng/mL | Activity (Acinetobacter baumannii [21]): Dose-Dependent Effect | Activity (Cell membrane [22]): inactive | AUMCt [23]: 31290 hr.hr.ng/ml | Activity (Calf thymus DNA [24]): inactive | log(activity) (Acinetobacter baumannii [25]): 1.6 | Activity (Calf thymus DNA [26]): Active | Activity (Erythrocyte): Non-Toxic | MIC (Escherichia coli [27]): 1 µM (≈ 0.25 µg/mL) | Activity (Acinetobacter baumannii [28]): Dose-Dependent Effect | MRT last at 24 h [29]: 2.61 h | Activity (Acinetobacter baumannii [30]): Dose-Dependent Effect | Activity (Calf thymus DNA [31]): Active | hemolysis at 1 h [32]: < 5% | half-life [33]: 4.39 h | MRT inf [34]: 4.67 h | Vd [35]: 2.1 L/kg | MIC (Staphylococcus aureus [36]): 1020 µM (≈ 256 µg/mL) | MRT last at 24 h [37]: 3.97 h | F [38]: 35.41% | C0 at 24 h [39]: 2590 ng/mL | MIC (Staphylococcus aureus [40]): 512 µM (≈ 128 µg/mL) | Activity (Calf thymus DNA [41]): Dose-Dependent Effect | MIC (Klebsiella pneumoniae): 8 µM (≈ 2 µg/mL) | AUC(0-t) at 24 h [42]: 7870 ng·h/mL | hemolysis at 8 h, 512 times MIC [43]: 1.5% | Tmax [44]: 1.98 min | Vd [45]: 7.89 L/kg
